Assays:
Assay in all cases: CTG-3D luminescence at 96 h relative to day-0 seeding control (ratio to day 0); higher = more growth / less cytotoxicity; PDxO 3D drug screen, 96 h, CTG-3D normalised to day-0 seeding control.
[1] = test system: HCI-005.E2 (organoid from a breast cancer xenograft with a HER2-positive history)
[2] = test system: HCI-008 (organoid from a HER2-enriched breast cancer xenograft)
[3] = test system: HCI-010 (organoid from a breast cancer xenograft)
[4] = test system: HCI-011.E2 (organoid from an ER-positive breast cancer xenograft)
[5] = test system: HCI-012 (organoid from a breast cancer xenograft)
[6] = test system: HCI-015 (organoid from a triple-negative breast cancer xenograft)
[7] = test system: HCI-019 (organoid from a triple-negative breast cancer xenograft)

NC1(C(=O)N[C@@H](CCO)c2ccc(Cl)cc2)CCN(c2nc[nH]c3nccc2-3)CC1 [capivasertib]
CTG-3D luminescence at 96 h
Details	12.5 pM	0.00025 µM	0.005 µM	0.1 µM	1 µM	10 µM	100 µM	625 fM
[1]	1.64	1.67	1.86	2.16	1.02	0.59	0.467	1.73
[4]	1.63	1.67	1.43	1.63	1.05	0.559	0.275	1.8

CTG-3D luminescence at 96 h
Details	12.5 pM	0.00025 µM	0.005 µM	0.1 µM	1 µM	10 µM	100 µM	625 fM
[2], days in culture: 228	1.6	2.11	1.54	0.955	0.441	0.222	0.155	1.76
[2], days in culture: 244	1.6	1.98	1.87	1.34	0.546	0.415	0.392	2.08
[3], days in culture: 52	2.05	2.33	2.4	2.54	2.01	1.78	0.545	2.15
[3], days in culture: 65	1.57	1.77	1.93	1.6	1.47	1.18	0.287	1.58
[3], days in culture: 103	3.5	3.47	3.91	3.21	2.35	2.11	0.959	3.23
[4], days in culture: 74	1.84	2.07	2.01	1.54	1	0.548	0.307	2.49
[5], days in culture: 143	2.02	1.95	1.78	2.01	1.55	0.931	0.0899	1.91
[5], days in culture: 162	2.5	2.27	1.88	2.92	1.51	1.15	0.236	3.5
[5], days in culture: 201	2.73	2.11	1.59	1.5	1.61	0.543	0.269	1.74
[6], days in culture: 172	2.34	2.2	2.33	1.49	1.2	0.92	0.424	2.15
[6], days in culture: 191	2.07	1.39	1.53	1.06	1.24	0.533	0.257	1.27
[6], days in culture: 218	1.47	1.49	1.11	1.59	0.974	0.878	0.315	1.71
[7], days in culture: 110	1.22	1.74	1.4	1.97	0.842	1.18	0.332	1.92
[7], days in culture: 131	2.99	3.67	2.98	3.31	1.45	1.63	0.521	4.08
[7], days in culture: 152	2.96	2.9	2.96	1.68	0.946	0.895	0.274	2.6

Cc1nc(-c2cn3c(n2)-c2ccc(-c4cnn(C(C)(C)C(N)=O)c4)cc2OCC3)n(C(C)C)n1 [taselisib]
CTG-3D luminescence at 96 h
Details	12.5 pM	0.00025 µM	0.005 µM	0.1 µM	1 µM	10 µM	100 µM	625 fM
[1]	1.52	1.77	1.52	1.21	0.401	0.348	0.34	2.12
[4]	1.44	1.59	1.07	0.776	0.369	0.212	0.527	1.51

CTG-3D luminescence at 96 h
Details	12.5 pM	0.00025 µM	0.005 µM	0.1 µM	1 µM	10 µM	100 µM	625 fM
[2], days in culture: 228	1.62	1.54	1.28	0.687	0.439	0.314	0.174	1.8
[2], days in culture: 244	1.38	1.94	1.92	0.848	0.448	0.358	0.123	2.25
[3], days in culture: 52	2.17	2.09	1.97	2.31	1.65	0.735	0.0132	2.15
[3], days in culture: 65	1.89	1.84	1.88	1.78	1.24	0.457	0.00794	1.82
[3], days in culture: 103	3.55	3.66	3.45	3.46	2.33	0.906	0.0169	2.92
[4], days in culture: 74	2.48	2.64	1.33	0.778	0.432	0.326	0.711	2.81
[5], days in culture: 143	2.1	2.32	2.04	1.89	1.21	0.59	0.046	1.82
[5], days in culture: 162	2.56	2.08	1.72	2.19	1.1	0.703	0.0208	2.93
[5], days in culture: 201	2.64	2	1.44	1.62	1.56	0.385	0.0205	1.75
[6], days in culture: 172	2.38	1.78	2.27	1.48	1.4	0.489	0.178	3.06
[6], days in culture: 191	2.01	1.36	1.67	0.905	1.12	0.541	0.0414	1.56
[6], days in culture: 218	2.32	1.88	1.69	1.55	0.988	0.617	0.0074	2.08
[7], days in culture: 110	1.23	1.32	1.4	1.45	0.521	0.496	0.105	2.64
[7], days in culture: 131	2.82	3.38	3.03	1.62	1.23	0.571	0.133	4.04
[7], days in culture: 152	3.26	2.42	2.02	1.86	1.08	0.381	0.116	2.51

O=C(c1ccc(F)c(F)c1Nc1ccc(I)cc1F)N1CC(O)([C@@H]2CCCCN2)C1 [cobimetinib]
CTG-3D luminescence at 96 h
Details	12.5 pM	0.00025 µM	0.005 µM	0.1 µM	1 µM	10 µM	100 µM	625 fM
[1]	1.55	1.65	1.32	1.05	0.579	0.594	0.00269	1.63
[4]	1.67	1.69	1.54	1.81	1.6	1.58	0.00136	1.85

CTG-3D luminescence at 96 h
Details	12.5 pM	0.00025 µM	0.005 µM	0.1 µM	1 µM	10 µM	100 µM	625 fM
[2], days in culture: 228	1.65	1.7	1.33	1.14	1.11	1	-0.00126	1.7
[2], days in culture: 244	1.27	1.9	1.87	1.57	1.1	1.08	0.000182	2.25
[3], days in culture: 52	2.3	2.56	2.39	2.62	2.15	1.67	0.00712	2.57
[3], days in culture: 65	1.64	1.75	1.83	1.67	1.6	1.18	0.00337	1.61
[3], days in culture: 103	3.83	3.96	3.78	3.21	2.72	1.92	0.00125	3.51
[4], days in culture: 74	2.68	2.66	2.33	1.91	1.8	2.39	0.00131	2.55
[5], days in culture: 143	1.73	1.86	1.88	1.87	1.57	0.758	-0.00459	1.71
[5], days in culture: 162	2.44	2.1	1.91	2.85	1.59	1.45	0.00171	2.91
[5], days in culture: 201	2.69	1.53	1.69	1.91	2.24	1.02	-0.00449	1.35
[6], days in culture: 172	2.36	1.69	2.13	1.86	1.47	0.989	0.00672	2.48
[6], days in culture: 191	1.86	1.15	1.57	1.17	1.01	0.894	0.0092	1.58
[6], days in culture: 218	1.8	1.31	2.02	1.47	1.39	1.12	0.00858	1.64
[7], days in culture: 110	1.61	2.17	1.42	1.74	0.92	0.565	-0.00268	2.27
[7], days in culture: 131	2.19	3.62	3.36	3.24	1.65	1.41	-0.00394	3.82
[7], days in culture: 152	3.36	3.14	2.66	1.88	1.11	0.848	-1.56e-05	2.36

CC(C)n1nc(-c2ccc3oc(N)nc3c2)c2c(N)ncnc21 [sapanisertib]
CTG-3D luminescence at 96 h
Details	12.5 pM	0.00025 µM	0.005 µM	0.1 µM	1 µM	10 µM	100 µM	625 fM
[1]	2.06	2.01	1.9	0.62	0.362	0.282	0.0263	1.56
[4]	1.81	1.79	1.06	0.362	0.179	0.212	0.311	1.74

CTG-3D luminescence at 96 h
Details	12.5 pM	0.00025 µM	0.005 µM	0.1 µM	1 µM	10 µM	100 µM	625 fM
[2], days in culture: 228	1.63	1.78	0.85	0.502	0.33	0.185	0.0307	1.78
[2], days in culture: 244	1.15	1.75	1.82	0.854	0.511	0.267	0.0296	2.11
[3], days in culture: 52	2.19	2.6	1.89	0.958	0.693	0.249	0.011	2.4
[3], days in culture: 65	1.61	1.71	1.34	0.701	0.447	0.0873	0.00591	1.71
[3], days in culture: 103	3.65	3.1	3	1.48	1.26	0.555	-0.00132	3.02
[4], days in culture: 74	2.89	2.86	1.28	0.283	0.158	0.168	0.26	2.98
[5], days in culture: 143	1.67	2.13	1.85	1.06	0.799	0.586	0.181	1.68
[5], days in culture: 162	2.13	2.28	1.6	1.27	0.748	0.846	0.197	2.82
[5], days in culture: 201	2.95	2.02	1.89	0.938	1.37	0.293	0.0781	1.73
[6], days in culture: 172	2.06	1.81	1.9	0.761	0.765	0.544	0.204	2.17
[6], days in culture: 191	1.67	1.6	1.4	0.411	0.69	0.363	0.165	1.72
[6], days in culture: 218	1.96	1.53	1.59	0.561	0.547	0.511	0.156	1.77
[7], days in culture: 110	1.88	1.46	1.02	0.781	0.409	0.493	0.0143	2.26
[7], days in culture: 131	2.52	3.19	3.17	1.21	0.676	0.681	0.0207	3.58
[7], days in culture: 152	4.18	3.66	2.71	0.969	0.811	0.616	0.0357	2.12

From the supplement of paper PMC8882468
